Source: patent US11952344B2, “Heterocyclic compound and use thereof” (TAKEDA PHARMACEUTICAL COMPANY LIMITED, priority 2019, dated 2024)

What was measured:
[1] = target: T1, NMDA receptor containing the NR2B subunit (Homo sapiens, UniProt Q13224); conditions: continuous intravenous administration; cited from earlier work
[2] = target: T2, NMDA receptor containing the NR2B subunit (Rattus norvegicus, UniProt Q00960); conditions: rodents; cited from earlier work
[3] = target: T3, Human NMDA (NR1/NR2B) Receptor (Homo sapiens, UniProt Q13224); assay: NR2B Ca2+ influx assay; format: cell-based; conditions: 10 μM compound; HEK293 cells expressing GRIN1 and GRIN2B; glutamic acid/glycine-induced Ca2+ influx, Fluo-4 fluorescence; read-out: inhibitory rate (10 μM compound concentration)
T3 construct: host or cells: HEK293
How it was run: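 HEK293 cells stably expressing human GRIN1/GRIN2B were tetracycline-induced for 2 h, loaded with Fluo-4AM and preincubated 15 min at room temperature with compound at 10 μM final. Ca2+ influx was triggered by glutamic acid and glycine and fluorescence (ex 480/em 540 nm) was recorded for 5 min. Inhibition was computed from cumulative fluorescence.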

[4] = target: T2, NMDA receptor containing the NR2B subunit; assay: [3H]MK-801 binding test in vivo (hippocampus); parameters: from tissue; host or cells: rat hippocampus (Sprague Dawley); species or system Sprague Dawley rats; conditions: po, [3H]MK-801 binding inhibitory rate, 1 mg/kg p.o., vehicle = 100% binding, excess MK-801 maleate = 0%
Method: Experimental Example 2 [^3H]MK-801 Binding Test In Vivo
In order to confirm “functional antagonistic action on an NMDA receptor containing the NR2B subunit in vivo” which the compound of the present invention has, binding test was performed using tritium-labeled form of MK-801 ((5R,10S)-5-methyl-10,11-dihydro-5H-5,10-epiminodibenzo[a,d][7]annulene) ([^3H]MK-801), which is a compound capable of binding to the opening site of the NMDA receptor.
The example compound (1 mg/kg/2 mL, 0.5% MC water) or vehicle ([…], 0.5% MC water) was orally administered (p.o.) to Sprague Dawley rats (body weight 180-260 g). After a certain time (around after time-to maximum blood concentration), [^3H]MK-801 (20 μCi/kg/mL, Muromachi Kikai) was intravenously administered. After 10 min, the rats were euthanized by decapitation, and subjected to craniotomy, and the hippocampus was collected. The collected hippocampus was homogenized in 30 volumes (30 mL per 1 g tissue) ice-cooled 20 mM Hepes (pH7.5, Hampton Research) using a homogenizer (T10 basic Ultra-Turrax) for […]. […] The filter was washed four times with ice-cooled saline (5 mL, Otsuka Pharmaceutical), put into a scintillation vial, and then 10 mL of liquid scintillator A (FUJIFILM Wako Pure Chemical Corporation) was added thereto, and the residual radioactivity was counted using liquid scintillation counter (ALOKA LSC-6100). Separately, the residual radioactivity in 100 μL of the homogenate before the filtration was counted in the same way. The value of [the residual radioactivity in the filter/the residual radioactivity in the 100 μL of the homogenate] was calculated as a [^3H]MK-801 binding rate to the NMDA receptor expressing in each individual hippocampus tissue. […] The difference between the percentage of [^3H]MK-801 binding rate in the group orally administered with the example compound and that in the vehicle control group (100%) was analyzed as [^3H]MK-801 binding inhibitory rate by the example compound.

[5] = target: T1, NMDA receptor containing the NR2B subunit; conditions: in vivo; cited from earlier work
NMDA receptor [6] = conditions: single intravenous administration; major depression and bipolar disorder; cited from earlier work
NMDA receptor [7] = conditions: in vivo; cited from earlier work

T3 sequence (Q13224 27-1484, other chains not shown): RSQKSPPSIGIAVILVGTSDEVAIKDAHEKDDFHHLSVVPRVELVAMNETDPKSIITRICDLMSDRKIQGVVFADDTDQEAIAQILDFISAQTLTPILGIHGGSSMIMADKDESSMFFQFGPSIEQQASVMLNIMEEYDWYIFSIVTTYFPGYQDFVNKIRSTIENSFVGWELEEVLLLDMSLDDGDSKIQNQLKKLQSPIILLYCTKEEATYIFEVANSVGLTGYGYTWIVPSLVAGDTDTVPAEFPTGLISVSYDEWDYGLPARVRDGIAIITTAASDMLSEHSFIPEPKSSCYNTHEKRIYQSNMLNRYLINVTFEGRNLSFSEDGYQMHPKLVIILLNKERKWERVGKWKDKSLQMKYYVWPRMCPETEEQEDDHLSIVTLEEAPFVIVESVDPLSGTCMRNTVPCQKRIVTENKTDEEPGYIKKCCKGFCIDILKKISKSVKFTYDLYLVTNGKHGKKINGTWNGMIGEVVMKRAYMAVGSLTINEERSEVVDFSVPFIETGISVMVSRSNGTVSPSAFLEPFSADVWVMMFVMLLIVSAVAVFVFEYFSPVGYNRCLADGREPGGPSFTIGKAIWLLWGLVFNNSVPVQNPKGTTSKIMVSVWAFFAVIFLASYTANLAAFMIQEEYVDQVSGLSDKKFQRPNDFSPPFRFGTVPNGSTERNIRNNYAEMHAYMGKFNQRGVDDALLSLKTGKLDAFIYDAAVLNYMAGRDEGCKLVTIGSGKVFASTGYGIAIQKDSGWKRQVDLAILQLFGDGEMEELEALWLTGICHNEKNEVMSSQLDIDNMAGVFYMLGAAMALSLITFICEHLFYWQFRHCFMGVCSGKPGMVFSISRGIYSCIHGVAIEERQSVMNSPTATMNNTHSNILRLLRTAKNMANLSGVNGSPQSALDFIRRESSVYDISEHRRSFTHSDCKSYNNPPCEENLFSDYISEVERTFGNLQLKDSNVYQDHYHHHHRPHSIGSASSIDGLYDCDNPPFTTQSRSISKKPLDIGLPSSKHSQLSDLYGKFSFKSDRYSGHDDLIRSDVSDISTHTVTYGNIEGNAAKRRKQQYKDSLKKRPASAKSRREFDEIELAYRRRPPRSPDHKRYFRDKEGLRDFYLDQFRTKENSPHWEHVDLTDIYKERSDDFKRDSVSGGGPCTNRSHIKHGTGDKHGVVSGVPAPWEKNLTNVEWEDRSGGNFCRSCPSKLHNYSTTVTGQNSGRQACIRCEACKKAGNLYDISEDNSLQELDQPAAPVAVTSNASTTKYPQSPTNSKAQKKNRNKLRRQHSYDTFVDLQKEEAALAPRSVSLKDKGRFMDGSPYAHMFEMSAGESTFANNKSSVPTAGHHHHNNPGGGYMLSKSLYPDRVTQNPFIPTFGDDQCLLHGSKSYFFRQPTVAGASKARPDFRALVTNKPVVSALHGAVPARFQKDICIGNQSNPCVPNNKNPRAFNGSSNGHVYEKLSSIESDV
T2 sequence (Q00960 27-1482, other chains not shown): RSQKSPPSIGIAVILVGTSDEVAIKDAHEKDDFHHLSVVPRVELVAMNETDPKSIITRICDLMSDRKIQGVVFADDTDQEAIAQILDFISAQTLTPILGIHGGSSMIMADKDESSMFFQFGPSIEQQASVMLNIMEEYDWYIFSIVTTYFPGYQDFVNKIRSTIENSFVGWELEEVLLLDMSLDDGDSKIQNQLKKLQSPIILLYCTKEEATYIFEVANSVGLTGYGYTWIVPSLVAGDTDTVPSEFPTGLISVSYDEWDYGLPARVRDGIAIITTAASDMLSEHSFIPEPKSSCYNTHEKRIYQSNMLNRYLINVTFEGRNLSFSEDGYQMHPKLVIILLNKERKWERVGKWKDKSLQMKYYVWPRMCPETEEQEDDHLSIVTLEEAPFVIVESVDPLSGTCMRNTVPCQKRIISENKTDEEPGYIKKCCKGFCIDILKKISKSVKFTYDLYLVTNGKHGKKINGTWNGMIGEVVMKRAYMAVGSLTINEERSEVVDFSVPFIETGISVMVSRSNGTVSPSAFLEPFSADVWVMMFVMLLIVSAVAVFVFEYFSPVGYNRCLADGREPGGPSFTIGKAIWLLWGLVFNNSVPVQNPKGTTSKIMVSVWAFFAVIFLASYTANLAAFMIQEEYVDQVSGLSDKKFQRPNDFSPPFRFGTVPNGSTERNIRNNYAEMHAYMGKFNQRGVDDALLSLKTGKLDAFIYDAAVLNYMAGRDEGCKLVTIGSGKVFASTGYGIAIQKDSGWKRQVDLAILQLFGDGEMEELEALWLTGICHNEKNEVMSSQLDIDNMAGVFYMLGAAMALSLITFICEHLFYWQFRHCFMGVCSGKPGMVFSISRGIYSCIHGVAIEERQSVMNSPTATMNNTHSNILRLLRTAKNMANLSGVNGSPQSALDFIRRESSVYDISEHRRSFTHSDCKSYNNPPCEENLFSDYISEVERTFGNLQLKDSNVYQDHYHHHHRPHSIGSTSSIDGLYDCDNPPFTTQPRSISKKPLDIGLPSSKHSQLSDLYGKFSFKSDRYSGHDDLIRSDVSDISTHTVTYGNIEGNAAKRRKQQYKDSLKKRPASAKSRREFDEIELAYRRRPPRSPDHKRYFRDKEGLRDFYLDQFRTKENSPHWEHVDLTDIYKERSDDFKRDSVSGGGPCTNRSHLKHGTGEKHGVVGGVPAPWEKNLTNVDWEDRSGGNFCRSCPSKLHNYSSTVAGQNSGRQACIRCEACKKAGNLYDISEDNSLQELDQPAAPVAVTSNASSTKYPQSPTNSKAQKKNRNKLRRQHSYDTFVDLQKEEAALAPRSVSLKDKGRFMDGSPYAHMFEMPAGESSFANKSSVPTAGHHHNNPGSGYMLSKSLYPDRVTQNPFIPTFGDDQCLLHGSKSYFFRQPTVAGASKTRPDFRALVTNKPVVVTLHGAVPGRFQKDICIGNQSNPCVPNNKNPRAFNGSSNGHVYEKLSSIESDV
T1 sequence (Q13224 27-1484, other chains not shown): as the sequence (Q13224 27-1484, other chains not shown) above

C[C@@H]([C@@H](O)c1ccc(O)cc1)N1CCC(O)(c2ccccc2)CC1 [CP-101, 606]
improvement of treatment resistant-depression symptom [1]: significantly improves treatment resistant-depression symptom
number of occurrence and depth of cortical spreading depression [2]: suppress the number of occurrence and the depth of cortical spreading depression

COc1ncncc1CNC(=O)c1cnc(OC(F)F)c(F)c1 [Example 12, 6-(difluoromethoxy)-5-fluoro-N-[(4-methoxypyrimidin-5-yl)methyl]pyridine-3-carboxamide]
inhibition at 10 µM [3]: 92%
inhibition at 1 mg/kg [4]: 23%

COc1cncc(CNC(=O)c2cnc(OC(F)F)c(F)c2)c1 [Example 42, 6-(difluoromethoxy)-5-fluoro-N-[(5-methoxypyridin-3-yl)methyl]pyridine-3-carboxamide]
inhibition at 10 µM [3]: 94%
inhibition at 1 mg/kg [4]: 14%

COc1ncncc1CNC(=O)c1cc(F)c(OC(F)F)c(F)c1 [Example 63, 4-(difluoromethoxy)-3,5-difluoro-N-[(4-methoxypyrimidin-5-yl)methyl]benzamide]
inhibition at 10 µM [3]: 90%
inhibition at 1 mg/kg [4]: 10%

O=C(NCc1cnccc1OC(F)F)c1ccc(OC(F)(F)F)c(F)c1 [Example 112, N-[(4-(difluoromethoxy)-pyridin-3-yl)methyl]-3-fluoro-4-(trifluoromethoxy)-benzamide]
inhibition at 10 µM [3]: 96%

CC(C(O)c1ccc(O)cc1)N1CCC(Cc2ccccc2)CC1 (stereo not shown) [Ifenprodil]
pain sense threshold [5]: the pain sense threshold increases

C[C@@H](CN1CCC(Cc2ccccc2)CC1)[C@@H](O)c1ccc(O)cc1 [Ro25-6981]
number of occurrence and depth of cortical spreading depression [2]: suppress the number of occurrence and the depth of cortical spreading depression

CNC1(c2ccccc2Cl)CCCCC1=O (stereo not shown) [ketamine]
improvement of depression symptom (NMDA receptor [6]): improves depression symptom accompanying major depression and bipolar disorder rapidly and in a sustained manner

CC12CC3CC(C)(C1)CC(N)(C3)C2 [memantine]
improvement of peripheral symptoms of dementia (NMDA receptor [7]): partially improves peripheral symptoms of dementia
